# Values quoted from earlier work as cited in US20250032585A1, “Effective Doses of CNP Conjugates” (Ascendis Pharma Growth Disorders A/S, priority 2021, published 2025).
# Experiments:
# [1] = test system: pediatric patients with achondroplasia
# [2] = in vivo, sc
# NPR-B receptor = settings: pediatric patients with achondroplasia; increase from pre-dose baseline
substance,measurement,setting,value
vosoritide,treatment difference in the change from baseline in annual growth velocity (AGV) compared to placebo,[1]; after 52 weeks of treatment,1.57 cm/year
same,subjects with decreased blood pressure,"[1]; human, in vivo",13%
same,subjects with symptomatic episode of decreased blood pressure with vomiting and/or dizziness,"[1]; human, in vivo",3%
same,half-life,[2],21.0 to 27.9 min
same,time of maximum urinary cGMP level post-dose,NPR-B receptor,2 h
